PubChem BioAssay (NCI)
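Results reflect a 48-hour exposure of cells in 96-well plates to compound at five concentrations. The concentration for full growth arrest is given as TGI.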

Columns and labels:
Assay in all cases: DTP human tumour cell line panel, 48 h
UACC-257 melanoma = system: UACC-257 melanoma
SK-MEL-5 melanoma = system: SK-MEL-5 melanoma
BT-549 breast = system: BT-549 breast
SK-OV-3 ovarian = system: SK-OV-3 ovarian
OVCAR-3 ovarian = system: OVCAR-3 ovarian
SNB-75 CNS = system: SNB-75 CNS
LOX IMVI melanoma = system: LOX IMVI melanoma
MDA-N = system: MDA-N
SF-268 CNS = system: SF-268 CNS
HT29 colon = system: HT29 colon
NCI-H23 lung = system: NCI-H23 lung
T-47D breast = system: T-47D breast
HOP-92 NSCLC = system: HOP-92 NSCLC
UO-31 renal = system: UO-31 renal
COLO 205 colon = system: COLO 205 colon
K-562 leukemia = system: K-562 leukemia
786-0 renal = system: 786-0 renal
HCT-116 colon = system: HCT-116 colon
NCI-H522 lung = system: NCI-H522 lung
U251 CNS = system: U251 CNS
SR leukemia = system: SR leukemia
SK-MEL-28 melanoma = system: SK-MEL-28 melanoma
NCI/ADR-RES ovarian = system: NCI/ADR-RES ovarian
NCI-H226 lung = system: NCI-H226 lung
OVCAR-4 ovarian = system: OVCAR-4 ovarian
IGROV1 ovarian = system: IGROV1 ovarian
MCF7 breast = system: MCF7 breast
HS 578T breast = system: HS 578T breast
SK-MEL-2 melanoma = system: SK-MEL-2 melanoma
NCI-H460 lung = system: NCI-H460 lung
M14 melanoma = system: M14 melanoma
RPMI-8226 leukemia = system: RPMI-8226 leukemia
PC-3 prostate = system: PC-3 prostate
DU-145 prostate = system: DU-145 prostate
RXF 393 renal = system: RXF 393 renal
MOLT-4 leukemia = system: MOLT-4 leukemia
EKVX NSCLC = system: EKVX NSCLC
SW-620 colon = system: SW-620 colon
OVCAR-5 ovarian = system: OVCAR-5 ovarian
HCC-2998 colon = system: HCC-2998 colon
KM12 colon = system: KM12 colon
UACC-62 melanoma = system: UACC-62 melanoma
HL-60(TB) leukemia = system: HL-60(TB) leukemia
MDA-MB-231 breast = system: MDA-MB-231 breast
TK-10 renal = system: TK-10 renal
SF-539 CNS = system: SF-539 CNS
HOP-62 NSCLC = system: HOP-62 NSCLC
MDA-MB-435 = system: MDA-MB-435
HCT-15 colon = system: HCT-15 colon
CAKI-1 renal = system: CAKI-1 renal
A498 renal = system: A498 renal
CCRF-CEM leukemia = system: CCRF-CEM leukemia
ACHN renal = system: ACHN renal
SN12C renal = system: SN12C renal
OVCAR-8 ovarian = system: OVCAR-8 ovarian
SNB-19 CNS = system: SNB-19 CNS
MALME-3M melanoma = system: MALME-3M melanoma
SF-295 CNS = system: SF-295 CNS

Measured: TGI

O=C1NC(c2ccccc2)C1N(Cc1ccccc1)Cc1ccccc1 (stereo not drawn)
> 100 µM: UACC-257 melanoma | SK-MEL-5 melanoma | BT-549 breast | SK-OV-3 ovarian | OVCAR-3 ovarian | SNB-75 CNS | LOX IMVI melanoma | MDA-N | SF-268 CNS | HT29 colon | NCI-H23 lung | T-47D breast | HOP-92 NSCLC | UO-31 renal | COLO 205 colon | K-562 leukemia | 786-0 renal | HCT-116 colon | NCI-H522 lung | U251 CNS | SR leukemia | SK-MEL-28 melanoma | NCI/ADR-RES ovarian | NCI-H226 lung | OVCAR-4 ovarian | IGROV1 ovarian | MCF7 breast | HS 578T breast | SK-MEL-2 melanoma | NCI-H460 lung | M14 melanoma | RPMI-8226 leukemia | PC-3 prostate | DU-145 prostate | RXF 393 renal | MOLT-4 leukemia | EKVX NSCLC | SW-620 colon | OVCAR-5 ovarian | HCC-2998 colon | KM12 colon | UACC-62 melanoma | HL-60(TB) leukemia | MDA-MB-231 breast | TK-10 renal | SF-539 CNS | HOP-62 NSCLC | MDA-MB-435 | HCT-15 colon | CAKI-1 renal | A498 renal | CCRF-CEM leukemia | ACHN renal | SN12C renal | OVCAR-8 ovarian | SNB-19 CNS | MALME-3M melanoma | SF-295 CNS
